Test results reported in patent US10336762B2 (priority 2017, dated 2019).

Assays:
[1] = test system: TNFα; test: cells; assay type: cell-based, human; details: Homo sapiens, Monocyte, LPS-stimulated human monocytes, TNFα by TR-FRET; read-out: EC50 TNF
[2] = molecular target: IRAK4 enzyme (Homo sapiens (Human), UniProt Q9NWZ3); test: biochemical; assay type: biochemical; details: IRAK4 enzyme, TR-FRET, 500 μM ATP
Sequence of IRAK4 enzyme (Q9NWZ3 whole entry): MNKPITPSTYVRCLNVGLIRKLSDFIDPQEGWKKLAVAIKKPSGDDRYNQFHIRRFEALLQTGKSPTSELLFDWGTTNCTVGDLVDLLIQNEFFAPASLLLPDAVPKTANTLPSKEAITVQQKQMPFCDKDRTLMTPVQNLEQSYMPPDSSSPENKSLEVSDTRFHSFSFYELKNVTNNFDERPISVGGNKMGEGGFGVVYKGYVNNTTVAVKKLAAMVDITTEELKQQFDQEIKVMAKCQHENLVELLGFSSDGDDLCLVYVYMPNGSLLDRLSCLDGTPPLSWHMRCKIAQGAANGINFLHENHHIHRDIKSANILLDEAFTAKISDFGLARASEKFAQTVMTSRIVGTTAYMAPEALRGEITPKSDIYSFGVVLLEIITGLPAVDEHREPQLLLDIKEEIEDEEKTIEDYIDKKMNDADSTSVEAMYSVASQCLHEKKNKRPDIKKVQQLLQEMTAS

SMILES	EC50 [1] [nM]	IC50 [2] [nM]
CC(C)Nc1cc(-c2ccc3cc(C#N)cnn23)ncc1C(=O)NCC(=O)N1CC(F)(F)C1 [Example 807, 6-(3-cyanopyrrolo[1,2-b]pyridazin-7-yl)-N-(2-(3,3-difluoroazetidin-1-yl)-2-oxoethyl)-4-(isopropylamino) nicotinamide]	75	2
CC(C)(C)OC(=O)CNC(=O)c1cnc(-c2ccc3cc(C#N)cnn23)cc1NC12CCC(O)(CC1)CC2 [Example 808, tert-butyl (6-(3-cyano-pyrrolo[1,2-b]pyridazin-7-yl)-4-((4-hydroxy-bicyclo[2.2.2]octan-1-yl)amino)nicotinoyl) glycinate]	15	< 1
N#Cc1cnn2c(-c3cc(NC45CCC(O)(CC4)CC5)c(C(=O)NCCN4CCCC4=O)cn3)ccc2c1 [Example 809, 6-(3-cyanopyrrolo[1,2-b]pyridazin-7-yl)-4-((4-hydroxybicyclo[2.2.2]octan-1-yl)amino)-N-(2-(2-oxopyrrolidin-1-yl)ethyl)nicotinamide]	166	1
CC(C)(O)C(=O)CNC(=O)c1cnc(-c2ccc3cc(C#N)cnn23)cc1NC12CCC(O)(CC1)CC2 [Example 810, 6-(3-cyanopyrrolo[1,2-b]pyridazin-7-yl)-N-(3-hydroxy-3-methyl-2-oxobutyl)-4-((4-hydroxy-bicyclo[2.2.2]octan-1-yl)amino)nicotinamide]	9	< 1
N#Cc1cnn2c(-c3cc(NC45CCC(O)(CC4)CC5)c(C(=O)NCC(=O)c4ccccc4)cn3)ccc2c1 [Example 811, 6-(3-cyanopyrrolo[1,2-b]pyridazin-7-yl)-4-((4-hydroxybicyclo[2.2.2]octan-1-yl)amino)-N-(2-oxo-2-phenylethyl) nicotinamide]	32	< 1
CC(C)Nc1cc(-c2ccc3cc(C#N)cnn23)ncc1C(=O)NCC(=O)OC(C)(C)C [Example 812, tert-butyl (6-(3-cyano-pyrrolo[1,2-b]pyridazin-7-yl)-4-(isopropylamino)nicotinoyl)glycinate]	38	< 1
CC(C)(C)NC(=O)CNC(=O)c1cnc(-c2ccc3cc(C#N)cnn23)cc1NC12CCC(O)(CC1)CC2 [Example 813, N-(2-(tert-butylamino)-2-oxoethyl)-6-(3-cyano-pyrrolo[1,2-b]pyridazin-7-yl)-4-((4-hydroxy-bicyclo[2.2.2]octan-1-yl)amino)nicotinamide]	92	< 1
CN(C(=O)CNC(=O)c1cnc(-c2ccc3cc(C#N)cnn23)cc1NC12CCC(O)(CC1)CC2)C(C)(C)C [Example 814, N-(2-(tert-butyl(methyl)amino)-2-oxoethyl)-6-(3-cyanopyrrolo[1,2-b]pyridazin-7-yl)-4-((4-hydroxybicyclo[2.2.2]octan-1-yl)amino) nicotinamide]	40	< 1
COC(=O)NC[C@H]1C[C@H](Nc2cc(-c3ccc4cc(C#N)cnn34)ncc2C(=O)NCC(=O)C(C)(C)O)C1 [Example 815, methyl (((1r,3r)-3-((2-(3-cyanopyrrolo[1,2-b]pyridazin-7-yl)-5-((3-hydroxy-3-methyl-2-oxobutyl)carbamoyl)pyridin-4-yl)amino)cyclo-butyl)methyl)carbamate]	15	< 1
COC(=O)NC[C@H]1C[C@H](Nc2cc(-c3ccc4cc(C#N)cnn34)ncc2C(=O)NCCC(C)(C)NC(=O)OC(C)(C)C)C1 [Example 816, methyl (((1r,3r)-3-((5-((3-((tert-butoxy-carbonyl)amino)-3-methylbutyl)carbamoyl)-2-(3-cyanopyrrolo[1,2-b]pyridazin-7-yl)pyridin-4-yl)amino)cyclobutyl)methyl)carbamate]	41	< 1
CC(C)Nc1cc(-c2ccc3cccnn23)ncc1C(=O)NC[C@@H](F)C(C)(C)O [Example 817, (R)-N-(2-fluoro-3-hydroxy-3-methylbutyl)-4-(isopropyl-amino)-6-(pyrrolo[1,2-b]pyridazin-7-yl)nicotinamide]	165	6
COC(=O)NC[C@H]1C[C@H](Nc2cc(-c3ccc4cccnn34)ncc2C(=O)NC[C@@H](F)C(C)(C)O)C1 [Example 818, methyl (((1R,3r)-3-((5-(((R)-2-fluoro-3-hydroxy-3-methylbutyl)carbamoyl)-2-(pyrrolo[1,2-b]pyridazin-7-yl)pyridin-4-yl)amino)cyclo-butyl)methyl)carbamate]	224	4
COC(=O)NC[C@H]1C[C@H](Nc2cc(-c3ccc4cc(C#N)cnn34)ncc2C(=O)NCCC(C)(C)N)C1 [Example 819, methyl (((1r,3r)-3-((5-((3-amino-3-methylbutyl)carbamoyl)-2-(3-cyano-pyrrolo[1,2-b]pyridazin-7-yl)pyridin-4-yl)amino)cyclo-butyl)methyl)carbamate]	27	< 1
CC(C)(O)[C@H](F)CNC(=O)c1cnc(-c2ccc3cc(C#N)cnn23)cc1Nc1ccc2ncccc2c1 [Example 820, (R)-6-(3-cyanopyrrolo[1,2-b]pyridazin-7-yl)-N-(2-fluoro-3-hydroxy-3-methylbutyl)-4-(quinolin-6-ylamino)nicotinamide]	59	< 1
CC(C)(O)[C@H](F)CNC(=O)c1cnc(-c2ccc3cc(C#N)cnn23)cc1Nc1ccc2cnccc2n1 [Example 821, (R)-4-((1,6-naphthyridin-2-yl)amino)-6-(3-cyano-pyrrolo[1,2-b]pyridazin-7-yl)-N-(2-fluoro-3-hydroxy-3-methylbutyl)nicotinamide]	51	< 1
CC(C)(O)[C@H](F)CNC(=O)c1cnc(-c2ccc3cc(C#N)cnn23)cc1N[C@H]1CC[C@H](N2CCOCC2)CC1 [Example 822, 6-(3-cyanopyrrolo[1,2-b]pyridazin-7-yl)-N-((R)-2-fluoro-3-hydroxy-3-methylbutyl)-4-(((1r,4R)-4-morpholinocyclohexyl)amino)nicotinamide]	73	1
COCC(=O)NC[C@H]1C[C@H](Nc2cc(-c3ccc4cc(C#N)cnn34)ncc2C(=O)NC[C@@H](F)C(C)(C)O)C1 [Example 823, 6-(3-cyanopyrrolo[1,2-b]pyridazin-7-yl)-N-((R)-2-fluoro-3-hydroxy-3-methylbutyl)-4-(((1r,3R)-3-((2-methoxyacetamido)methyl)cyclobutyl)amino)nicotinamide]	47	< 1
CC(C)(C)C(=O)NC[C@H]1C[C@H](Nc2cc(-c3ccc4cc(C#N)cnn34)ncc2C(=O)NC[C@@H](F)C(C)(C)O)C1 [Example 824, 6-(3-cyanopyrrolo[1,2-b]pyridazin-7-yl)-N-((R)-2-fluoro-3-hydroxy-3-methylbutyl)-4-(((1r,3R)-3-(pivalamidomethyl)cyclo-butyl)amino)nicotinamide]	39	< 1
CCCC(=O)NC[C@H]1C[C@H](Nc2cc(-c3ccc4cc(C#N)cnn34)ncc2C(=O)NC[C@@H](F)C(C)(C)O)C1 [Example 825, 4-(((1r,3R)-3-(butyramidomethyl)cyclo-butyl)amino)-6-(3-cyano-pyrrolo[1,2-b]pyridazin-7-yl)-N-((R)-2-fluoro-3-hydroxy-3-methylbutyl) nicotinamide]	48	< 1
CC(C)CC(=O)NC[C@H]1C[C@H](Nc2cc(-c3ccc4cc(C#N)cnn34)ncc2C(=O)NC[C@@H](F)C(C)(C)O)C1 [Example 826, 6-(3-cyanopyrrolo[1,2-b]pyridazin-7-yl)-N-((R)-2-fluoro-3-hydroxy-3-methylbutyl)-4-(((1r,3R)-3-((3-methylbutanamido)methyl)cyclobutyl)amino)nicotinamide]	32	< 1
CC1(C(=O)NC[C@H]2C[C@H](Nc3cc(-c4ccc5cc(C#N)cnn45)ncc3C(=O)NC[C@@H](F)C(C)(C)O)C2)CC1 [Example 827, 6-(3-cyanopyrrolo[1,2-b]pyridazin-7-yl)-N-((R)-2-fluoro-3-hydroxy-3-methylbutyl)-4-(((1r,3R)-3-((1-methylcyclopropane-1-carboxamido)methyl)cyclo-butyl)amino)nicotinamide]	15	< 1
CC(C)(O)[C@H](F)CNC(=O)c1cnc(-c2ccc3cc(C#N)cnn23)cc1N[C@H]1C[C@H](CNC(=O)C2(F)CC2)C1 [Example 828, 6-(3-cyanopyrrolo[1,2-b]pyridazin-7-yl)-N-((R)-2-fluoro-3-hydroxy-3-methylbutyl)-4-(((1r,3R)-3-((1-fluorocyclopropane-1-carboxamido)methyl)cyclobutyl)amino) nicotinamide]	12	< 1
CC(C)(O)[C@H](F)CNC(=O)c1cnc(-c2ccc3cc(C#N)cnn23)cc1N[C@H]1C[C@H](CNC(=O)C2(C(F)(F)F)CC2)C1 [Example 829, 6-(3-cyanopyrrolo[1,2-b]pyridazin-7-yl)-N-((R)-2-fluoro-3-hydroxy-3-methylbutyl)-4-(((1r,3R)-3-((1-(trifluoromethyl)cyclopropane-1-carboxamido)methyl)cyclobutyl)amino) nicotinamide]	23	< 1
COC(=O)NC[C@H]1C[C@H](Nc2cc(-c3ccc4cc(C#N)cnn34)ncc2C(=O)NC2CCC(NC(=O)C3CC3)CC2)C1 (stereo partly drawn) [Example 830, methyl (((1R,3r)-3-((2-(3-cyanopyrrolo[1,2-b]pyridazin-7-yl)-5-(((1r,4R)-4-(cyclopropanecarboxamido)cyclohexyl)carbamoyl)pyridin-4-yl)amino)cyclobutyl)methyl)carbamate]	23	< 1
CC(C)(O)[C@H](F)CNC(=O)c1cnc(-c2ccc3cc(C#N)cnn23)cc1N[C@H]1C[C@H](CNS(C)(=O)=O)C1 [Example 831, 6-(3-cyanopyrrolo[1,2-b]pyridazin-7-yl)-N-((R)-2-fluoro-3-hydroxy-3-methylbutyl)-4-(((1r,3R)-3-(methylsulfonamido-methyl)cyclobutyl)amino)nicotinamide]	49	< 1
